According to patent US20250214993A1, “AROMATIC RING COMPOUND AND USE THEREOF” (SHANGHAI SHIJIANG BIOTECHNOLOGY CO., LTD, priority 2022, published 2025):

Tests used:
ov-NNMT NCI-H82 cell = assay: Cell viability (Promega CellTiter-Glo, intracellular ATP), IC50 on NNMT-overexpressing NCI-H82 cell; type: cell-based; conditions: Homo sapiens; NCI-H82 cell overexpressing NNMT protein
Source text: (§1) The expression of NNMT protein in NCI-H82 cell was overexpressed by inserting the NNMT gene into NCI-H82 cell using a viral vector, and the NNMT protein-overexpressing NCI-H82 cell (ov-NNMT NCI-H82 cell) was obtained. The normal and untreated NCI-H82 cell (Con-NCI-H82 cell) was used as control. The expressing content of NNMT protein in the ov-NNMT NCI-H82 cell and Con-NCI-H82 cell was detected using Western Blot assay (as shown in FIG. 1), it could be seen from FIG. 1 that the NNMT protein was overexpressed in the ov-NNMT NCI-H82 cell compared with the expression level of NNMT protein in the Con-NCI-H82 cell.
(§2) The cell viability was detected using the Promega CellTiter-Glo kit which reflected cell viability by measuring intracellular ATP content. The Con-NCI-H82 cell and ov-NNMT NCI-H82 cell was cultured in 10% fetal bovine serum-containing RPMI1640 medium (+P/S).

Con-NCI-H82 cell = assay: Cell viability (Promega CellTiter-Glo, intracellular ATP), IC50 on Con-NCI-H82 cell; type: cell-based; conditions: Homo sapiens; normal untreated NCI-H82 cell (control)
Source text: as §1, §2

Structure (SMILES) | IC50 (ov-NNMT NCI-H82 cell) | IC50 (Con-NCI-H82 cell)
Cc1nc2c(s1)C(=O)C(n1ccc3c[n+](C(C)c4ccccc4)ccc31)CC2 (stereo not shown) [AB27203] | 6430 nM | 1940 nM
Cc1cn(C2CCc3ccc(OC(F)(F)F)cc3C2=O)c2cc[n+](Cc3ccccc3)cc12 (stereo not shown) [AB27465] | 1030 nM | 160 nM
O=C1c2cc(Cl)ccc2CCC1[n+]1ccc2c(c1)CCC(c1ccccc1)N2 (stereo not shown) [AB27134] | 12400 nM | 3350 nM
CC(c1ccccc1)[n+]1ccc2c(ccn2C2CCc3ccsc3C2=O)c1 (stereo not shown) [AB27199] | 4830 nM | 446 nM
Cc1cc2c[n+](Cc3ccccc3)ccc2n1CC(=O)c1ccc(C(F)(F)F)cc1 [AB27357] | 1220 nM | 74 nM
O=C1c2ccc(OC(F)(F)F)cc2CCC1[n+]1ccc2cn(Cc3ccccc3)cc2c1 (stereo not shown) [AB27295] | 8480 nM | 717 nM
CC(C)n1ccc2c[n+](C3CCc4ccc(C(F)(F)F)cc4C3=O)ccc21 (stereo not shown) [AB27151] | 2980 nM | 1040 nM
CCCC(=O)N(Cc1ccccc1)c1cc[n+](CC(=O)c2ccc(C)cc2)cc1 [AB27234] | 6960 nM | 1270 nM
Cc1ccc(C(=O)C[n+]2ccc(NCc3ccccc3)cc2C2CC2)cc1 [AB27238] | 1150 nM | 151 nM
Cc1c(C)n(CC(=O)c2cccc(C(F)(F)F)c2)c2cc[n+](Cc3ccccc3)cc12 [AB27493] | 3450 nM | 281 nM
CCCn1ccc2c[n+](C3CCc4ccc(Cl)cc4C3=O)ccc21 (stereo not shown) [AB27253] | 5480 nM | 1680 nM
Cc1c(Cl)c2c[n+](Cc3ccccc3)ccc2n1C1CCc2ccc(Cl)cc2C1=O (stereo not shown) [AB27485] | 7100 nM | 504 nM
O=C1c2cc(OC(F)(F)F)ccc2CCC1[n+]1ccc2cn(Cc3ccccc3)cc2c1 (stereo not shown) [AB27289] | 2050 nM | 285 nM
Cc1cc(NCc2ccccc2)cc[n+]1CC(=O)c1ccc(C(F)(F)F)cc1 [AB27273] | 1540 nM | 187 nM
O=C1c2cc(F)ccc2CCC1[n+]1ccc2cn(Cc3ccccc3)cc2c1 (stereo not shown) [AB27477] | 1980 nM | 164 nM
Cc1cccc(-c2c[nH]c3c[n+](CC(=O)c4ccc(OC(F)(F)F)cc4)ccc23)c1 [AB27121] | 6450 nM | 2260 nM
CC(C)n1ccc2c[n+](C3CCc4ccc(OC(F)(F)F)cc4C3=O)ccc21 (stereo not shown) [AB27157] | 6320 nM | 1530 nM
Cc1ccc(C(=O)CN(C)c2cc[n+](Cc3ccccc3)cc2)cc1 [AB27285] | 1350 nM | 364 nM

Structure (SMILES) | IC50 (ov-NNMT NCI-H82 cell) | IC50 (Con-NCI-H82 cell)
CCCCCn1ccc2c[n+](C3CCc4ccc(OC(F)(F)F)cc4C3=O)ccc21 (stereo not shown) [AB27249] | 1520 nM | 222 nM
CC(c1ccccc1)[n+]1ccc2c(cnn2C2CCc3ccc(Cl)cc3C2=O)c1 (stereo not shown) [AB31806] | 2960 nM | 257 nM
Cc1ccc(C(=O)C[n+]2ccc(NCc3cccc(C)n3)cc2C)cc1 [AB27328] | 8470 nM | 2800 nM
CCC(=O)N(Cc1ccccc1)c1cc[n+](CC(=O)c2ccc(C)cc2)cc1 [AB27232] | 3050 nM | 290 nM
CC(c1ccccc1)c1cn(C)c2c[n+](C3CCc4ccc(Cl)cc4C3=O)ccc12 (stereo not shown) [AB27186] | 5690 nM | 1990 nM
O=C1c2ccc(C(F)(F)F)cc2CCC1[n+]1ccc(NCc2ccccc2)cc1 (stereo not shown) [AB27110] | 5040 nM | 996 nM
O=C1c2cc(Cl)ccc2CCC1[n+]1ccc2c(ccn2CC2CC2)c1 (stereo not shown) [AB27252] | 3690 nM | 968 nM
Cc1cn(C2CCc3ccc(C(F)(F)F)cc3C2=O)c2cc[n+](Cc3ccccc3)cc12 (stereo not shown) [AB27464] | 1350 nM | 175 nM
Cc1ccc2c(c1)C(=O)C([n+]1cnc3c(c1)CCC(c1ccccc1)N3)CC2 (stereo not shown) [AB27137] | 12000 nM | 4360 nM
O=C(Cn1cnc2c[n+](Cc3ccccc3)ccc21)c1cccc(OC(F)(F)F)c1 [AB31702] | 17500 nM | 5460 nM
Cc1ccc(C(=O)C[n+]2cc3c(cc2Cl)c(Cc2ccccc2)cn3C)cc1 [AB27482] | 9570 nM | 3420 nM
CC(c1ccccc1)n1cc2cc[n+](C3CCc4ccc(F)cc4C3=O)cc2c1 (stereo not shown) [AB27480] | 2340 nM | 181 nM
Cc1cc2c[n+](Cc3ccccc3)ccc2n1CC(=O)c1ccc(OC(F)(F)F)cc1 [AB27358] | 1090 nM | 83 nM
O=C1c2cc(OC(F)(F)F)ccc2CCC1[n+]1cnc2c(c1)CCC(c1ccccc1)N2 (stereo not shown) [AB27136] | 14600 nM | 5610 nM
O=C1c2ccc(OC(F)(F)F)cc2CCC1n1ccc2c[n+](Cc3ccccc3)ccc21 (stereo not shown) [AB27291] | 1040 nM | 79 nM
O=C(Cn1cnc2c[n+](Cc3ccccc3)ccc21)c1cccc(C(F)(F)F)c1 [AB31703] | 12300 nM | 2140 nM
Cc1ccc(C(=O)C[n+]2ccc(NCc3ccccc3)c3ccccc32)cc1 [AB27272] | 5480 nM | 776 nM

Molecules with a lower IC50 (ov-NNMT NCI-H82 cell), results first:

IC50 (ov-NNMT NCI-H82 cell) | Structure (SMILES) | IC50 (Con-NCI-H82 cell)
822 nM | CCc1cc(NCc2ccccc2)cc[n+]1CC(=O)c1ccc(C)cc1 [AB27236] | 50 nM
864 nM | O=C(Cn1ccc2c[n+](Cc3ccccc3)ccc21)c1ccc(OC(F)(F)F)cc1 [AB27265] | 123 nM
684 nM | CCCCCn1ccc2c[n+](C3CCc4ccc(Cl)cc4C3=O)ccc21 (stereo not shown) [AB27250] | 51 nM
235 nM | Cc1cccc(C(=O)Cn2ccc3c[n+](Cc4ccccc4)ccc32)c1 [AB27259] | 18 nM
342 nM | O=C1c2cc(Cl)ccc2CCC1n1ccc2c[n+](Cc3cccc(Cl)c3)ccc21 (stereo not shown) [AB27244] | 24 nM
438 nM | Cc1cn(C2CCc3ccc(F)cc3C2=O)c2cc[n+](Cc3ccccc3)cc12 (stereo not shown) [AB27460] | 34 nM
903 nM | Cc1cccc(C(=O)Cn2cc(C)c3c[n+](Cc4ccccc4)ccc32)c1 [AB27267] | 113 nM
754 nM | Cc1cn(CC(=O)c2cccc(Cl)c2)c2cc[n+](Cc3ccccc3)cc12 [AB27266] | 89 nM
285 nM | Cc1ccc(C[n+]2ccc3c(ccn3C3CCc4ccc(Cl)cc4C3=O)c2)cc1 (stereo not shown) [AB27240] | 15 nM
283 nM | Cc1cn(CC(=O)c2cccc(F)c2)c2cc[n+](Cc3ccccc3)cc12 [AB27478] | 23 nM
308 nM | CCC(c1ccccc1)[n+]1ccc2c(ccn2C2CCc3ccc(Cl)cc3C2=O)c1 (stereo not shown) [AB27246] | 18 nM
243 nM | Cc1ccc(C(=O)Cn2ccc3c[n+](Cc4ccccc4)ccc32)cc1 [AB27260] | 13 nM
868 nM | O=C1c2cc(Cl)ccc2CCC1n1ccc2c[n+](Cc3ccc(Cl)cc3)ccc21 (stereo not shown) [AB27245] | 88 nM
222 nM | Cc1ccc2c(c1)C(=O)C(n1ccc3c[n+](C(C)c4ccccc4)ccc31)CC2 (stereo not shown) [AB27180] | 16 nM
319 nM | O=C(Cn1c(Br)cc2c[n+](Cc3ccccc3)ccc21)c1cccc(C(F)(F)F)c1 [AB27490] | 19 nM
1000 nM | O=C(Cn1ccc2c[n+](Cc3ccccc3)ccc21)c1cccc(C(F)(F)F)c1 [AB27262] | 57 nM
886 nM | Cc1cc(NCc2ccccc2)cc[n+]1CC(=O)c1cccc(C(F)(F)F)c1 [AB27275] | 63 nM
276 nM | O=C(Cn1ccc2c[n+](Cc3ccccc3)ccc21)c1cccc(Cl)c1 [AB27258] | 14 nM
